Measured values as given in paper PMC9688808, “Discovery of Novel Lin28 Inhibitors to Suppress Cancer Cell Stemness” (Cancers, 2022).

Tests used:
Assay type in all cases: binding
Lin28A ZKD [1] = target: T1, Lin28A ZKD (Homo sapiens, UniProt Q9H9Z2); test: Fluorescence polarization (FP) assay, Lin28A ZKD with FAM-labeled Let-7 probe; conditions: for IC50: 10 uM Lin28A ZKD, 1 nM FAM-labeled Let-7 probe, 1 nM–200 uM compound; for suppression of FP signals: Lin28A ZKD
T1 construct: Lin28A ZKD (aa121-187); His-tag; made in house; host or cells: Escherichia coli BL21
T1 sequence (Q9H9Z2 121-187): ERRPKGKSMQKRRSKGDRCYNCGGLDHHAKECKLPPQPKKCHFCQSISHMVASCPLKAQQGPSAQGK
Excerpt: (§1) ZINC compounds were purchased from Enamine (Kyiv, Ukraine), Life Chemicals Ltd. (Kyiv, Ukraine), or Princeton Biomolecular Research (Princeton, NJ, USA) with >90% purity. Upon receiving the compounds, the molecular masses were validated by LC/MS/MS. His-tagged human Lin28B ZKD (aa110-174), Lin28B CSD+ZKD (aa7-204), and Lin28A ZKD (aa121-187) were expressed in Escherichia coli BL21 cells and purified by immobilized metal ion affinity chromatography (IMAC) with nickel nitrilotriacetic acid (NiNTA) resin and size exclusion chromatography (s75 10/300 GL) as we have previously reported.
(§2) The fluorescein amidites (FAM)-tagged Let-7 probe with the sequence of […] was purchased from Integrated DNA Technologies (IDT). The probe at the concentrations ranging from 1 nM to 50 uM was incubated with Lin28B (ZKD) or Lin28 (CSD+ZKD) to a final volume of 30 uL at room temperature for 20 min. To read the fluorescence, a TECAN 500 machine was used. Fluorescence polarization was calculated using the following equation: P=Fparrallel−Fperpendicular/Fparrallel+Fperpendicular where P is the fluorescence polarization reading, F parallel is the fluorescence intensity acquired from the parallel excitation plane, and F perpendicular is the fluorescence intensity acquired from the perpendicular direction of the excitation plane. The total fluorescence intensity is estimated using the following equation: F=Fparallel+2Fperpendicular
(§3) All the raw FP signal data from the TECAN 500 FP results were analyzed using Prism 8.0 (GraphPad, San Diego, CA, USA); normalized curves were plotted and IC50 values were estimated. All FP data were repeated three to five times.
(§4) Figure 5 Lin28 inhibitors block the Lin28A isoform. (A) EMSA used 10 nM of IR800DyeCWN-labeled Let-7 probe (lane 1), 0.5 uM Lin28A ZKD protein with 10 nM of labeled Let-7 probe (lane 2), or Lin28A ZKD, labeled Let-7 probe and 100× non-labeled competitor probe (lane 3). EMSA used Lin28A ZKD, labeled Let-7 probe, and 100–1200 uM of indicated compounds (lanes 4–10). (B) FP assays were performed by using 10 uM of Lin28A ZKD, 1 nM of FAM-labeled Let-7 probe, and 1 nM–200 uM of compounds. (C) Lin28A-positive IGROV1 cells were treated with 20 uM of the indicated compound for 48 h. Real-time qPCR measured RNA levels of Let-7d, SOX2, and HMGA2. Three biological replicates were performed and all results are presented as mean +/− SD. p-value ≤ 0.05—(*); ≤0.01—(**); ≤0.001—(***).

Lin28A ZKD [2] = target: T1, Lin28A ZKD; test: EMSA, Lin28A ZKD–Let-7 complex; conditions: compounds 100–1200 uM
Method: EMSA followed the standard protocols we published with minor modifications. An IRDye800CWN-labeled Let-7 RNA probe was purchased from IDT (Coralville, IA, USA). Lin28B or Lin28A proteins were incubated with […] of probe in a standard 20 uL EMSA reaction in a reaction buffer containing 20 mM HEPES-NaOH, pH 7.4, 2 mM DTT, 3 mM MgCl2, 0.05% NP-40, protease inhibitors, and 0.1 ug poly[dI:dC]. After incubation for 30 min at 37 °C, reactions were loaded onto 4% non-denatured polyacrylamide gel in 0.5× TBE buffer. The RNA oligo bands were visualized by using the Li-Cor Odyssey 9120 Infrared Imaging System.
as §4

Lin28B ZKD = target: T2, Lin28B ZKD (Homo sapiens, UniProt Q6ZN17); test: Fluorescence polarization (FP) assay, Lin28B ZKD with FAM-labeled Let-7 probe; conditions: for IC50: 10 uM Lin28B ZKD, 1 nM FAM-labeled Let-7 probe, 1 nM–1000 uM compound
T2 construct: His-tagged human Lin28B ZKD (aa110-174); His-tag; made in house; host or cells: Escherichia coli BL21
T2 sequence (Q6ZN17 110-174): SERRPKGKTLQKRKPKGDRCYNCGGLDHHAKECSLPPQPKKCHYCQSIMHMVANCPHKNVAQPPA
Excerpt: as §1, §2, §3
To test the predicted compounds by CADD, we established an FP assay using both Lin28B ZKD and Lin28B CSD+ZKD to be incubated with a FAM-labeled Let-7 oligo containing the GGAG motif. To validate that the signals obtained from FP assays reflect the interaction between Lin28 and Let-7, we have tested: (1) 1 nM–50 uM FAM-labeled Let-7 probes with 10 uM Lin28 proteins and observed a dose-dependent reduction of FP signal; (2) 1 nM FAM labeled Let-7 probes with 1 nM–50 uM Lin28 proteins and observed a dose-dependent increase of FP signal; (3) 1 nM–50 uM doses of non-labeled Let-7 oligo to be incubated with 1 nM FAM probe and 10 uM Lin28 proteins, and observed a dose-dependent reduction of FP signal (Figure 2A,B).
Figure 2 Establishment of the Fluorescence Polarization Assay and Initial compound screening. (A) Graphical representation of the FP assay principle. As the labeled probe floats freely in the solution, it rotates more rapidly, producing a low FP signal. When the labeled probe binds to proteins, it rotates slower and produces a high FP signal. (B) In FP assays, probe titration was performed by using 10 uM protein with […] FAM-labeled Let-7 probe (n = 9 replicates). Protein titration was performed by using 1 nM of FAM-labeled Let-7 probe with 1 nM–50 uM Lin28B ZKD protein (n = 9 replicates), and competition titration using 1 nM–50 µM non-labeled Let-7 probe with 10 uM of Lin28B ZKD protein with 1 nM FAM-labeled Let-7 probe (9 replicates). (C) FP assays were used to screen 163 compounds at the concentration of 20 uM using 1 nM of FAM-labeled Let-7 probe with 10 uM Lin28B ZKD protein.
Figure 3 Lin28 inhibitors block the interaction between Lin28B ZKD and Let-7. […]

IC50 (Lin28A ZKD [1]) [µM] | concentration that inhibits formation of Lin28A ZKD–Let-7 complex in EMSA (Lin28A ZKD [2]) [µM] | IC50 (Lin28B ZKD) [µM] | suppression of FP signals (Lin28A ZKD [1]) | maximum inhibition in FP assay (Lin28B ZKD; Lin28B ZKD titration) [%] | Structure (SMILES)
27.4 | > 1200 | ~45 |  |  | CCc1cc(=O)[nH]c(Nc2cc(Cl)ccc2O)n1 [Ln7]
 | > 1200 |  | mild inhibitions | ≤ 50 | CC(=O)N(C)c1cccc(-c2ccc3nnc(C)n3n2)c1 [compound 1632, reference compound]
 | 100 to 400 | 55 | mild inhibitions |  | CCOc1cccc2c1N[C@@H](c1ccc(C(=O)O)cc1)[C@H]1CC=C[C@@H]21 [Li71, reference compound]
9.1 | 100 to 400 | ~9 |  |  | O=c1[nH]c(Nc2ccccc2O)cs1 [Ln15]
12.2 | 100 to 400 | ~21 |  |  | O=c1cccc(-c2nc3cc(F)c(O)cc3c(=O)[nH]2)[nH]1 [Ln115]
